Experiment: molar heat capacity at constant pressure; xn = mol fraction of the nth substance listed
Settings: 101.3 kPa, Liquid, Small sample (50 mg) DSC

CCC(C)(C)O [2-methylbutan-2-ol] + CCCCCCC
molar heat capacity at constant pressure [J/K/mol]
Settings | 288.15 K | 289.14 K | 290.14 K | 291.15 K | 292.14 K
x1 = 0.0061 | – | 221.82 | 222.02 | 222.4 | 222.7
x1 = 0.0249 | – | 227.63 | 227.88 | 228.24 | –
x1 = 0.0494 | – | 231.74 | 232.1 | 232.63 | 233.02
x1 = 0.1 | – | 235.73 | 236.25 | 236.91 | 237.52
x1 = 0.1547 | – | 237.99 | 238.66 | 239.46 | 240.13
x1 = 0.1999 | – | 239.11 | 239.89 | 240.73 | 241.49
x1 = 0.2993 | 239.83 | 240.71 | 241.62 | 242.6 | 243.55
x1 = 0.4051 | 240.03 | 241.03 | 242.04 | 243.13 | 244.19
x1 = 0.4986 | 239.84 | 240.91 | 241.98 | 243.16 | 244.28
x1 = 0.5981 | 239.38 | 240.51 | 241.64 | 242.84 | 243.93
x1 = 0.7015 | 238.26 | 239.53 | 240.72 | 241.97 | 243.17
x1 = 0.8023 | 237.01 | 238.27 | 239.53 | 240.74 | 241.93
x1 = 0.9139 | 236.54 | 237.62 | 238.75 | 239.92 | 241.07
x1 = 0.9609 | 236.62 | 237.61 | 238.68 | 239.8 | –

Source: the NIST ThermoML archive (doi:10.1016/j.jct.2008.10.010)
